# Activity calls are given as the source filed them. For most assays here, no stated cut-off is given here; in the data, actives have a measured EC50 and inactives only a lower limit.
# Assays:
# [1] = molecular target: T1, Heat shock factor protein 1 (Mus musculus, UniProt P38532); experiment: decrease of HSF1-responsive luciferase luminescence – cell-based, NIH3T3, dose retest, confirmation (AID 2382); format: functional;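 further: NIH3T3 fibroblasts with HSF1-driven luciferase reporter stressed by proteasome inhibitor MG132; luminescence from HSF1-driven luciferase expression after 8 hours of MG132 stress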
# T1 sequence (P38532 whole entry): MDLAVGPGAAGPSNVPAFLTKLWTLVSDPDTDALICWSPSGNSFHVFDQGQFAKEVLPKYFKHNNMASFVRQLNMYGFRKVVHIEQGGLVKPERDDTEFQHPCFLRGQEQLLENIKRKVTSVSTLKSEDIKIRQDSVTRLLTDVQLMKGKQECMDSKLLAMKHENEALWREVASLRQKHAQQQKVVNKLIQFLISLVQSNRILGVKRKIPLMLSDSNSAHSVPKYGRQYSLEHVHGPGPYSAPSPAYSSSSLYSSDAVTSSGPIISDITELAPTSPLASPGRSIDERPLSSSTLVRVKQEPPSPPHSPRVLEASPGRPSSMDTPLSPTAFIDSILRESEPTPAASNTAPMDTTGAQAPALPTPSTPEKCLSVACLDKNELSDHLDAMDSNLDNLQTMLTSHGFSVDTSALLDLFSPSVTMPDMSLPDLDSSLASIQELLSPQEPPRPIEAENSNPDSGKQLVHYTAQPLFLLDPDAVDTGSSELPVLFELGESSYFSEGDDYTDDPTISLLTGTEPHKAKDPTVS
# [2] = molecular target: FAD-linked sulfhydryl oxidase ALR (Homo sapiens, UniProt P55789); experiment: ALR-catalysed DTT oxidation blockers – biochemical, H2O2 detection, luminescence, cherry-pick, dose response (AID 493248)
# [3] = system: INS1; experiment: INS-1E survival protection against cytokine death – cell-based, luminescence, retest, dose response (AID 449756); format: functional; conditions: Rattus norvegicus;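 further: cell death triggered by IL-1 beta plus TNF-alpha plus IFN-gamma mixture; protective hits raise ATP signal compared with cytokine alone wells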
# [4] = NIH-3T3 fibroblast cytotoxicity, dose response, cytotoxicity control, cell-based, fluorescence, Alamar Blue, secondary assay (AID 2327); format: functional;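 further: NIH-3T3 mouse fibroblasts cultured with fluconazole at 8 µg/mL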
# [5] = fluconazole-exposed Candida albicans growth modulators – fluorescence, retest, confirmation (AID 2467); format: functional, cell-based
# [6] = luciferase reporter signal suppression in cells – H4 neuroglioma cells, luminescence, dose response (AID 1990); format: functional, cell-based
# [7] = alpha-synuclein stem-loop luciferase translation blockers – H4 neuroglioma cells, luminescence, confirmation (AID 1988); format: functional, cell-based
# [8] = Luminescence Cell-Based Dose Response HTS to Identify Inhibitors of 5'UTR Stem-Loop Driven Prion Protein mRNA Translation in H4 Neuroglioblastoma Cells. [Related pubchem assays: 1827 (Project Summary), 1813 (Primary HTS)]; format: functional
# [9] = NIH3T3 cell viability loss – ATP luminescence, mouse fibroblasts, counter-screen, dose response (AID 2010); format: functional, cell-based;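 further: cells exposed to compound for about 90 hours before reading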
# [10] = Trypanosoma cruzi growth suppression in host cells – NIH3T3 host cells, beta-gal luminescence, confirmation (AID 2044); format: functional, cell-based;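 further: intracellular parasites grown in NIH/3T3 mouse fibroblasts as host cells; luminescent beta-galactosidase reporter signal from transgenic T. cruzi replicating inside host cells; inhibitors lower the luminescence signal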
# [11] = non-specific 3'UTR reporter inhibition in Clone20-Shn3RL – cell-based, Renilla luciferase, cherry-picked, counter-screen for Shn3 inhibitor project, dose response (AID 624133); format: functional
# [12] = reduction of Shn3 3'UTR-driven luciferase in osteoblasts – cell-based, Clone20 osteoblasts, firefly luciferase, cherry-picked, dose response (AID 624132); format: functional;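 further: firefly luciferase luminescence from reporter carrying the Shn3 3'UTR in osteoblasts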
# [13] = system: Streptococcus; experiment: GAS UMAA2166 growth inhibition – luminescence, BacTiterGlo, counter-screen for streptokinase expression inhibitor project, dose response (AID 1915); format: functional, organism-based;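 further: potency for reduction of bacterial viability or growth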
# [14] = system: Streptococcus sp. 'group A'; experiment: Streptococcus pyogenes SK(-)GAS viability under kanamycin – luminescence, BacTiterGlo, confirmation, counter-screen for streptokinase expression inhibitor project, dose response (AID 1900); format: functional, organism-based
# Chain of FAD-linked sulfhydryl oxidase ALR (P55789 whole entry): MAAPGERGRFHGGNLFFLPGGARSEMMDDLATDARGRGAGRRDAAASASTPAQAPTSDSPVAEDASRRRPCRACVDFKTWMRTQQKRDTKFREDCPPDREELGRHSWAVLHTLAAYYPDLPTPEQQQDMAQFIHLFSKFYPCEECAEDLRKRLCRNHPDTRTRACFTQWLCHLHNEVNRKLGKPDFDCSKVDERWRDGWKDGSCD
structure (smiles),measurement,setting,value
CCOC(=O)N1CCN(c2nc(C)c3c(n2)CCCC3=O)CC1,EC50,[1],> 195 µM (not active)
Cc1c(Br)cnn1C(C)C(=O)N1CCN(c2ccc(F)cc2)CC1 (configuration not stated),AC50,[2],0.578 µM (active)
COc1ccccc1NS(=O)(=O)c1cccc(NC(=O)c2[nH]c(C)c(C(C)=O)c2C)c1,AC50,[3],31.1 µM (active)
O=C(CSc1ccc(Cl)cc1)Nc1nnc(-c2ccco2)o1,EC50,[4],> 160 µM (inconclusive)
same,EC50,[5],3.02 µM (active)
O=C(NCc1ccc(C(=O)O)cc1)OCc1ccccc1,EC50,[1],> 195 µM (not active)
Cc1cccc(Sc2nc(-c3ccccc3)ncc2C(=O)O)c1,EC50,[4],104 µM (active)
same,EC50,[5],1.66 µM (active)
Brc1ccc2c(c1)[C@H]1OCC[C@H]1[C@@H](c1cccs1)N2,EC50,[6],> 60 µM (not active)
same,EC50,[7],13.2 µM (active)
same,EC50,[8],17.2 µM (active)
NC1=NC(=O)C(Cc2cccc(Cl)c2Cl)S1 (configuration not stated),EC50,[4],21.6 µM (inconclusive)
same,EC50,[5],> 38 µM (not active)
COc1ccc(Nc2ncnc3sc(-c4ccccc4)cc23)cc1,EC50,[1],> 195 µM (not active)
O=C(c1cc([N+](=O)[O-])ccc1N1CCCCC1)N1CCc2ccccc21,EC50,[6],> 120 µM (not active)
same,EC50,[7],10.9 µM (active)
same,EC50,[8],> 120 µM (not active)
COc1ccc(CCN(C)CCC(=O)Nc2ccc(C)cc2)cc1OC,EC50,[9],> 60 µM (not active)
same,EC50,[10],0.227 µM (active)
Cc1ccc(C(=O)N(Cc2cccnc2)Cc2cc3cc(C)ccc3n3nnnc23)cc1,EC50,[9],> 60 µM (not active)
same,EC50,[10],1.29 µM (active)
CN(C)c1ccc(CNc2ncnc3sccc23)cc1,EC50,[4],> 160 µM (inactive)
same,EC50,[5],2.63 µM (active)
O=c1[nH]n2c(C(F)(F)F)cc(C3CC3)nc2c1N=Nc1ccccc1,EC50,[4],> 150 µM (inactive)
same,EC50,[5],1.05 µM (active)
COc1cc(OC)cc(-c2cc(N3C(=O)Nc4ccccc4N3O)[nH]n2)c1,EC50,[1],73.7 µM (active)
Cc1cccc2cc(CN(Cc3cccs3)Cc3nnnn3Cc3ccccc3)c(O)nc12,EC50,[9],> 30 µM (not active)
same,EC50,[10],2.68 µM (active)
CC(=O)N1CCOCCOCCN(C(C)=O)CCOCCOCC1,EC50,[4],> 150 µM (inconclusive)
C/C(=N\Nc1ccc(Cl)c(C(=O)O)c1)c1cc2ccccc2o1,AC50,[2],0.138 µM (active)
C/C(=N\Nc1nc(C)cc(-c2ccccc2)n1)c1ccc(O)cc1,AC50,[3],0.993 µM (active)
CCOC(=O)N1CCN(CC(c2ccccc2)c2ccccc2)CC1,AC50,[11],39.1 µM (active)
same,AC50,[12],14.1 µM (active)
CCC1=NN2C(=N)/C(=C\c3cccn3-c3ccc(C)c(C)c3)C(=O)N=C2S1,EC50,[13],6.01 µM (active)
same,EC50,[14],3.34 µM (active)
CCc1ccc(-[n+]2cc(-c3ccc(F)cc3)n3c2SCCC3)cc1,AC50,[3],0.429 µM (active)
COc1cc(/C=C2/C(=O)ON=C2C)cc(Cl)c1O,AC50,[2],16 µM (active)
O=C(CC(Sc1ccc(Br)cc1)C(=O)O)c1ccc(F)cc1 (configuration not stated),EC50,[9],> 30 µM (not active)
same,EC50,[10],2.1 µM (active)
O=C(Cn1cc(C(=O)c2ccco2)c2ccccc21)NC1CCCCC1,EC50,[1],> 195 µM (not active)
CC(=O)O[C@H]1CC[C@]2(C)[C@H]3CC=C4[C@@H]5[C@@H](C)[C@H](C)CC[C@]5(C(=O)O)CC[C@@]4(C)[C@]3(C)CC[C@H]2C1(C)C [O-ACETYLURSOLIC ACID],EC50,[13],3.26 µM (active)
same,EC50,[14],2.11 µM (active)
Cc1ccc(NC(S)=NC2CC3CCC(C2)N3Cc2ccco2)cc1C (configuration not stated),EC50,[1],> 195 µM (not active)
Cc1ccc2nc(Cl)c(-c3ccccc3)cc2c1,EC50,[6],> 120 µM (not active)
same,EC50,[7],> 120 µM (not active)
same,EC50,[8],> 120 µM (not active)
O=C(NCc1ccco1)c1ccccc1NS(=O)(=O)c1ccc(Cl)s1,AC50,[2],2.1 µM (active)
O=C(CN1CCN(S(=O)(=O)c2ccc3ccccc3c2)CC1)NC(=O)NC1CCCCC1,EC50,[6],13 µM (active)
same,EC50,[7],46.8 µM (active)
same,EC50,[8],> 120 µM (not active)
CCN(CC)S(=O)(=O)c1cc(C)ccc1N=C(S)Nc1cccnc1,AC50,[3],43.2 µM (active)
CCN(CCCNS(=O)(=O)c1ccc2c(c1)CCN2C(C)=O)c1cccc(C)c1,AC50,[2],2.81 µM (active)

# Source: ChEMBL document CHEMBL1201862, “PubChem BioAssay data set” (2004)
